The record followed here is US7241799B2, “Cannabimimetic indole derivatives” (University of Connecticut, priority 1999, dated 2007).

Where two headings read alike, the source gives them in different places.

The target in one experiment is T1, CB1 receptor (Rattus norvegicus, UniProt P20272).
T1 construct: membranes were prepared from rat forebrain membranes; from tissue; host or cells: rat forebrain
Put plainly: CB1 receptor binding, [3H] CP-55,940 displacement, rat forebrain membranes. The settings on record: for Ki: rat forebrain membranes, 0.8 nM [3H] CP-55,940, read-out: Kl CB1; for selectivity for the CB1 receptor: binding selectivity CB1 versus CB2, from the results in the TABLES. The protocol:
(§1) The materials were tested for CB2 receptor binding affinity and for CB1 receptor affinity (to determine selectivity for the CB2 receptor). As used herein, “binding affinity” is represented by the IC50 value which is the concentration of an analog required to occupy the 50% of the total number (Bmax) of the receptors. The lower the IC50 value the higher the binding affinity.
For the CB1 receptor binding studies, membranes were prepared from rat forebrain membranes according to the procedure of P. R. Dodd et al, A Rapid Method for Preparing Synaptosomes: Comparison with Alternative Procedures, Brain Res., 107–118 (1981). The binding of the novel analogues to the CB1 cannabinoid receptor was assessed as described in W. A. Devane et al, Determination and Characterization of a Cannabinoid Receptor in a Rat Brain, Mol. Pharmacol., 34, 605–613 (1988) and A. Charalambous et al, 5′-azido Δ^8 THC: A Novel Photoaffinity Label for the Cannabinoid Receptor, J. Med. Chem., 35, 3076–3079 (1992) with the following changes. The above articles are incorporated by reference herein.
Membranes, previously frozen at −80° C., were thawed on ice. To the stirred suspension was added three volumes of TME (25 mM Tris-HCl buffer, 5 mM MgCl2 and 1 mM EDTA) at a pH 7.4. The suspension was incubated at 4° C. for 30 min. At the end of the incubation, the membranes were pelleted and washed three times with TME.
(§2) The treated membranes were subsequently used in the binding assay described below. Approximately 30 μg of membranes were incubated in silanized 96-well microtiter plate with TME containing 0.1% essentially fatty acid-free bovine serum albumin (BSA), 0.8 nM [^3H] CP-55,940, and various concentrations of test materials at […] for 1 hour. The samples were filtered using Packard Filtermate 196 and Whatman GF/C filterplates and washed with wash buffer (TME) containing 0.5% BSA. Radioactivity was detected using MicroScint 20 scintillation cocktail added directly to the dried filterplates, and the filterplates were counted using a Packard Instruments Top-Count. Nonspecific binding was assessed using 100 nM CP-55,940. Data collected from three independent experiments performed with duplicate determinations was normalized between 100% and 0% specific binding for [^3H] CP-55,940, determined using buffer and 100 nM CP-55,940. The normalized data was analyzed using a 4-parameter nonlinear logistic equation to yield IC50 values. Data from at least two independent experiments performed in duplicate was used to calculate IC50 values which were converted to Ki values using the assumptions of Cheng et al, Relationship Between the Inhibition Constant (Ki) and the concentration of Inhibitor which causes 50% Inhibition (IC50) of an Enzymatic Reaction, Biochem. Pharmacol., 22, 3099–3102, (1973), which is incorporated by reference herein.

For another experiment, the target named is T2, CB2 receptor (Mus musculus, UniProt P47936).
T2 construct: membranes were prepared from frozen mouse spleen; from tissue; host or cells: mouse spleen
In words: CB2 receptor binding, [3H] CP-55,940 displacement, mouse spleen membranes. As to conditions: for Ki: mouse spleen membranes, [3H] CP-55,940, read-out: Kl CB2 (converted). As for the experimental part:
as §1, §2
For the CB2 receptor binding studies, membranes were prepared from frozen mouse spleen essentially according to the procedure of P. R. Dodd et al, A Rapid Method for Preparing Synaptosomes: Comparison with Alternative Procedures, Brain Res., 226, 107–118 (1981) which is incorporated by reference herein. Silanized centrifuge tubes were used throughout to minimize receptor loss due to adsorption. The CB2 binding assay was conducted in the same manner as for the CB1 binding assay. The binding affinities (Ki) were also expressed in nanomoles (nM).

T2 sequence (P47936 whole entry): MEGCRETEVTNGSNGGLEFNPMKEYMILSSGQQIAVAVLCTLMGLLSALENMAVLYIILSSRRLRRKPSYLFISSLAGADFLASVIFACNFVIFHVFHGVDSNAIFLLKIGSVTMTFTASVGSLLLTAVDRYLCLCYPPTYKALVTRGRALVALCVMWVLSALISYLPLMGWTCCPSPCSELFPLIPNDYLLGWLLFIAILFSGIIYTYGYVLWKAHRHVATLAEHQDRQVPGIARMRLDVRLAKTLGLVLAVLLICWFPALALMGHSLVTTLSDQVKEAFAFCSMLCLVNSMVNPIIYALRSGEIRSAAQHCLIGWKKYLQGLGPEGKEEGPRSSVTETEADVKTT
T1 sequence (P20272 whole entry): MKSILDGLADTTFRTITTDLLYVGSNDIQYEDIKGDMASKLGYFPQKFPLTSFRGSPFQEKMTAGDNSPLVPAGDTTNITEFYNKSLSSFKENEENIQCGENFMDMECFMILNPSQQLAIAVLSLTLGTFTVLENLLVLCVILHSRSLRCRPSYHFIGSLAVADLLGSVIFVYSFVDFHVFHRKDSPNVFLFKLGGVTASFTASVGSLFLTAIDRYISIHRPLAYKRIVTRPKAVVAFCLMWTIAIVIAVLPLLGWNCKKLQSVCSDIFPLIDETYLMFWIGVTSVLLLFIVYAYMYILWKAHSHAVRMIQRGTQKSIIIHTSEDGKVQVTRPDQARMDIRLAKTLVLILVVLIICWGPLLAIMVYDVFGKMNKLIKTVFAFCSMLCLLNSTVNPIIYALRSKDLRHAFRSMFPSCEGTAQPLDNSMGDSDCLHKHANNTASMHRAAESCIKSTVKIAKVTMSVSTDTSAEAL

For `Cc1c(C(=O)c2ccccc2I)c2ccc([N+](=O)[O-])cc2n1CC1CCCCN1C` (racemic) [AM664], the Ki on CB1 receptor (TABLE 1, racemic samples) is 40 nM; on CB2 receptor (TABLE 1, racemic samples) it was 80 nM.
The like results for `Cc1c(C(=O)c2ccccc2I)c2ccc(N)cc2n1CC1CCCCN1C` (racemic) [AM665] were, in that order, 206 nM and 20.3 nM.
Taken in the same sequence, the figures for `Cc1c(C(=O)c2ccccc2)c2ccc(N=[N+]=[N-])cc2n1CC1CCCCN1C` (racemic) [AM671] were 155 nM and 59.1 nM.
As for `Cc1c(C(=O)c2ccccc2)c2ccc(N=C=S)cc2n1CC1CCCCN1C` (racemic) [AM684], the Ki is 181 nM at CB1 receptor (TABLE 1, racemic samples) and 44.8 nM on CB2 receptor (TABLE 1, racemic samples).
As to `Cc1c(C(=O)c2ccccc2I)c2ccc(N=[N+]=[N-])cc2n1CC1CCCCN1C` (racemic) [AM1215], the Ki at CB1 receptor (TABLE 1, racemic samples) was 40.7 nM; at CB2 receptor (TABLE 1, racemic samples), 21.9 nM.
Turning to `Cc1c(C(=O)c2ccccc2I)c2ccc(N=C=S)cc2n1CC1CCCCN1C` (racemic) [AM1216], the Ki at CB1 receptor (TABLE 1, racemic samples) was 210 nM; at CB2 receptor (TABLE 1, racemic samples) it was 25.2 nM.
As to `CN1CCCCC1Cn1cc(C(=O)c2cccc3ccccc23)c2ccc(N=C=S)cc21` (racemic) [AM1217], the Ki is 255 nM on CB1 receptor (TABLE 1, racemic samples) and 81.5 nM at CB2 receptor (TABLE 1, racemic samples).
In the case of `CN1CCCCC1Cn1cc(C(=O)c2cccc3ccccc23)c2ccc([N+](=O)[O-])cc21` (racemic) [AM1218], the Ki on CB1 receptor (TABLE 1, racemic samples) is 11.2 nM; at CB2 receptor (TABLE 1, racemic samples), 3.98 nM.
In the case of `CN1CCCCC1Cn1cc(C(=O)c2cccc3ccccc23)c2ccc(N)cc21` (racemic) [AM1219], the Ki was 96.6 nM at CB1 receptor (TABLE 1, racemic samples) and 31.3 nM at CB2 receptor (TABLE 1, racemic samples).
The like results for `CN1CCCCC1Cn1cc(C(=O)c2cccc3ccccc23)c2ccc(N=[N+]=[N-])cc21` (racemic) [AM1224] were, in that order, 20.2 nM and 0.73 nM.
`Cc1c(C(=O)c2cccc3ccccc23)c2ccc(N)cc2n1CC1CCCCN1C` (racemic) [AM1225]: the Ki at CB1 receptor (TABLE 1, racemic samples) is 440 nM; at CB2 receptor (TABLE 1, racemic samples), 38.5 nM.
Taken in the same sequence, the figures for `Cc1c(C(=O)c2cccc3ccccc23)c2ccc(N=[N+]=[N-])cc2n1CC1CCCCN1C` (racemic) [AM1231] were 31.2 nM and 34.2 nM.
Taken in the same sequence, the figures for `CN1CCCCC1Cn1cc(C(=O)c2cc3ccc4cccc5ccc(c2)c3c45)c2ccccc21` (racemic) [AM1253] were 60.3 nM and 126 nM.
The like results for `CN1CCCCC1Cn1cc(C(=O)c2cc(N=[N+]=[N-])ccc2I)c2ccc(N=[N+]=[N-])cc21` (racemic) [AM2209] were, in that order, 48.8 nM and 41.8 nM.
For the molecule `CN1CCCCC1Cn1cc(C(=O)c2ccc(I)c3ccccc23)c2ccc(N=[N+]=[N-])cc21` (racemic) [AM2212], the Ki on CB1 receptor (TABLE 1, racemic samples) is 31 nM; on CB2 receptor (TABLE 1, racemic samples), 2.9 nM.
The like results for `CN1CCCCC1Cn1cc(C(=O)c2ccc(N=C=S)c3ccccc23)c2ccc(N=C=S)cc21` (racemic) [AM2215] were, in that order, 235 nM and 99.6 nM.
Taken in the same sequence, the figures for `CN1CCCCC1Cn1cc(C(=O)c2cc(N=C=S)ccc2I)c2ccc(N=C=S)cc21` (racemic) [AM2223] were 64.8 nM and 29.9 nM.
As to `CCCCCn1c(C)c(C(=O)c2ccccc2I)c2ccccc21` [AM669], the Ki is 47.2 nM on CB1 receptor (TABLE 2) and 38.6 nM at CB2 receptor (TABLE 2).
The like results for `CCCCCCCn1c(C)c(C(=O)c2ccccc2I)c2ccccc21` [AM672] were, in that order, 1600 nM and 1510 nM.
As to `CCCCCn1cc(C(=O)c2ccccc2I)c2ccccc21` [AM679], the Ki on CB1 receptor (TABLE 2) was 13.5 nM; on CB2 receptor (TABLE 2) it was 49.5 nM.
The like results for `CCCCCCn1c(C)c(C(=O)c2ccccc2I)c2ccccc21` [AM682] were, in that order, 332 nM and 693 nM.
Taken in the same sequence, the figures for `CCCCn1c(C)c(C(=O)c2ccccc2I)c2ccccc21` [AM683] were 272 nM and 281 nM.
The like results for `CC(=O)OCCCCCn1c(C)c(C(=O)c2ccccc2I)c2ccccc21` [AM689] were, in that order, 2280 nM and 1020 nM.
In the case of `Cc1c(C(=O)c2ccccc2I)c2ccccc2n1CCCCCO` [AM690], the Ki on CB1 receptor (TABLE 2) is 4850 nM; at CB2 receptor (TABLE 2), 1970 nM.
Taken in the same sequence, the figures for `CC(=O)OCCCCCn1cc(C(=O)c2ccccc2I)c2ccccc21` [AM692] were 2660 nM and 1520 nM.
The like results for `O=C(c1ccccc1I)c1cn(CCCCCO)c2ccccc12` [AM693] were, in that order, 835 nM and 526 nM.
For the molecule `O=C(c1ccccc1I)c1cn(CCCCCF)c2ccccc12` [AM694], the Ki on CB1 receptor (TABLE 2) is 0.08 nM; on CB2 receptor (TABLE 2) it was 1.44 nM. The “selectivity for the CB1 receptor” value at CB1 receptor was “high selectivity for the CB1 receptor”.
For `Cc1ccc(S(=O)(=O)OCCCCCn2cc(C(=O)c3ccccc3I)c3ccccc32)cc1` [AM697], the Ki was 1310 nM at CB1 receptor (TABLE 2) and 1120 nM at CB2 receptor (TABLE 2).
The like results for `O=C(c1ccccc1I)c1cn(CCCCCI)c2ccccc12` [AM698] were, in that order, 136 nM and 315 nM.
The like results for `O=C(c1ccccc1I)c1cn(CCCCCN=C=S)c2ccccc12` [AM1201] were, in that order, 106 nM and 110 nM.
The like results for `CCCCCn1cc(C(=O)c2cc([N+](=O)[O-])ccc2I)c2ccccc21` [AM1202] were, in that order, 98.9 nM and 22.9 nM.
Take `CCCCCn1cc(C(=O)c2cc(N)ccc2I)c2ccccc21` [AM1203]: the results for the Ki at CB1 receptor (TABLE 2) and on CB2 receptor (TABLE 2) were 63.6 nM and 88.9 nM, respectively.
Regarding `CCCCCn1cc(C(=O)c2cc(N=C=S)ccc2I)c2ccccc21` [AM1204], the Ki at CB1 receptor (TABLE 2) was 5660 nM; at CB2 receptor (TABLE 2), 3350 nM.
The like results for `CCCCCn1cc(C(=O)c2cc(N=[N+]=[N-])ccc2I)c2ccccc21` [AM1205] were, in that order, 117 nM and 196 nM.
Taken in the same sequence, the figures for `CCCCCn1cc(C(=O)c2cc(I)ccc2I)c2ccccc21` [AM1206] were 105 nM and 150 nM.
Consider `CN1CCCCC1Cn1cc(C(=O)c2cccc3ccccc23)c2ccccc21` (centres unmarked) [AM1220], for which the Ki was 3.88 nM at CB1 receptor (TABLE 1, racemic samples) and 73.4 nM at CB2 receptor (TABLE 1, racemic samples).
On to `Cc1c(C(=O)c2cccc3ccccc23)c2ccc([N+](=O)[O-])cc2n1CC1CCCCN1C` (centres unmarked) [AM1221], for which the Ki was 52.3 nM on CB1 receptor (TABLE 1, racemic samples) and 0.28 nM on CB2 receptor (TABLE 1, racemic samples).
As to `CC(=O)OCCCCCn1cc(C(=O)c2cccc3ccccc23)c2ccc([N+](=O)[O-])cc21` [AM1233], the values for the Ki on CB1 receptor (TABLE 2) and at CB2 receptor (TABLE 2) were 142 nM and 154 nM, respectively.
The like results for `O=C(c1cccc2ccccc12)c1cn(CCCCCO)c2cc([N+](=O)[O-])ccc12` [AM1234] were, in that order, 77.6 nM and 197 nM.
For `O=C(c1cccc2ccccc12)c1cn(CCCCCF)c2cc([N+](=O)[O-])ccc12` [AM1235], the Ki on CB1 receptor (TABLE 2) is 1.5 nM; on CB2 receptor (TABLE 2), 20.4 nM. Moreover, the “selectivity for the CB1 receptor” value at CB1 receptor was “high selectivity for the CB1 receptor”.
Regarding `CC(=O)OCCCCCn1cc(C(=O)c2cccc3ccccc23)c2ccc(N)cc21` [AM1236], the Ki is 1130 nM on CB1 receptor (TABLE 2) and 559 nM at CB2 receptor (TABLE 2).
In the case of `Nc1ccc2c(C(=O)c3cccc4ccccc34)cn(CCCCCO)c2c1` [AM1237], the Ki was 837 nM on CB1 receptor (TABLE 2) and 244 nM at CB2 receptor (TABLE 2). Further, the “selectivity for the CB2 receptor” value at CB2 receptor (binding selectivity CB2 versus CB1, from the results in the TABLES) is listed as “high selectivity for the CB2 receptor”.
Turning to `O=C(c1cccc2ccccc12)c1cn(CCCCCO)c2cc(I)ccc12` [AM1238], the Ki on CB1 receptor (TABLE 2) was 3.1 nM; at CB2 receptor (TABLE 2) it was 17.3 nM.
